# Measured values published in PubChem BioAssay AID1224920 (Broad Institute, 2016).
# Several values for one entry are separate records, joined by “and”; a condition that tells them apart may be missing. Equal values may be shown once. Activity calls are given as the source filed them.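 Rule for the calls: active = IC50 no higher than ten times the top tested dose; inconclusive = flat fit with 30 to 70% inhibition, or poor fit; inactive = IC50 above ten times the top dose.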
# Test system: Clostridium difficile clinical isolate growth, OD600, 24 h
# Experiment: growth modulation of Clostridium difficile isolate – OD600, 9-point, retest, dose response (AID 1224920);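 note: inhibitors lower culture turbidity so OD600 falls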
row,Structure (SMILES),IC50
1,O=C(Nc1cccc(F)c1)N1C[C@@H]2N[C@H](C1)C2c1ccc(-c2ccccc2F)cc1 (some centres undefined),27 µM and 65.3 µM
2,Cc1ccc(-c2ccc(C3[C@@H]4CN(S(=O)(=O)c5cccc(C)c5)C[C@H]3N4)cc2)cc1 (some centres undefined),8.64 µM
3,C/C=C/c1ccc(C2[C@H]3CNC[C@@H]2N3Cc2cc(-c3ccccc3)on2)cc1 (some centres undefined),32.7 µM
4,Cc1ccccc1-c1ccc(C2[C@@H]3CN(C(=O)Nc4cccc(F)c4)C[C@H]2N3)cc1 (some centres undefined),39 µM
5,O=S(=O)(Cc1ccccc1)N1CCCCN2[C@H](CO)[C@H](c3ccc(-c4ccc(F)cc4)cc3)[C@H]2C1,42.5 µM
6,O=C(C1CCCC1)N1C[C@@H]2N[C@H](C1)C2c1ccc(/C=C/c2ccccc2)cc1 (some centres undefined),30.1 µM
7,COc1cccc(CN2C[C@@H]3N[C@H](C2)C3c2ccc(-c3ccccc3OC)cc2)c1 (some centres undefined),34.1 µM
8,O=C(C[C@H]1CC[C@H]2[C@@H](COC[C@@H](O)CN2C(=O)Nc2ccc(Cl)c(Cl)c2)O1)NC1CCC1,19.4 µM
9,COc1cccc(S(=O)(=O)N2[C@@H]3CNC[C@H]2C3c2ccc(/C=C/c3ccccc3)cc2)c1 (some centres undefined),23.9 µM
10,Cc1ccc(-c2ccc([C@H]3[C@@H](CO)N4CCCCN(C(=O)Nc5ccccc5)C[C@H]34)cc2)cc1,37.7 µM
11,CC(C)CC#Cc1ccc([C@@H]2[C@@H](CO)N3CCCCN(C(=O)Nc4ccccc4)C[C@H]23)cc1,10.9 µM
12,O=C(C[C@@H]1CC[C@H]2[C@@H](COC[C@@H](O)CN2C(=O)Nc2ccc(C(F)(F)F)cc2)O1)NCC1CCCCC1,7.5 µM
13,COc1ccccc1C#Cc1ccc2c(c1)[C@H]1[C@H](CCN1C(=O)c1ccc(F)cc1)[C@H](CO)N2,0.759 µM
14,Cc1ccc(S(=O)(=O)N2[C@@H]3CNC[C@H]2C3c2ccc(-c3cccc(C)c3)cc2)cc1 (some centres undefined),32.1 µM
15,C/C=C/c1ccc(C2[C@H]3CNC[C@@H]2N3Cc2cccc(F)c2)cc1 (some centres undefined),31.1 µM
16,Cc1ccc(-c2ccc([C@@H]3[C@H](CO)N4CCCCN(C(=O)Nc5ccccc5)C[C@@H]34)cc2)cc1,20.2 µM
17,O=C(Nc1ccccc1F)N1CCCCN2[C@H](CO)[C@H](c3ccc(/C=C/c4ccccc4)cc3)[C@H]2C1,10.4 µM
18,O=S(=O)(c1ccc(F)cc1)N1C[C@@H]2N[C@H](C1)C2c1ccc(/C=C/c2ccccc2)cc1 (some centres undefined),8.8 µM
19,O=C(C1CCCCC1)N1C[C@@H]2N[C@H](C1)C2c1ccc(-c2ccccc2F)cc1 (some centres undefined),55.9 µM
20,Cc1ccc(-c2ccc(C3[C@@H]4CN(C(=O)Nc5ccc(C(F)(F)F)cc5)C[C@H]3N4)cc2)cc1 (some centres undefined),4.49 µM and 2.49 µM
21,C/C=C/c1ccc(C2[C@@H]3CN(Cc4ccc5c(c4)OCO5)C[C@H]2N3)cc1 (some centres undefined),46.3 µM and 55.8 µM

row,Structure (SMILES),IC50
1,Cc1ccc(-c2ccc([C@H]3[C@H](CO)N4CCCCN(C(=O)Nc5cccc(F)c5)C[C@@H]34)cc2)cc1,11.2 µM
2,Cc1ccccc1S(=O)(=O)N1CCCCN2[C@H](CO)[C@H](c3ccc(-c4cccc(F)c4)cc3)[C@H]2C1,11.3 µM
3,O=C(NC[C@@H]1N[C@@H](CO)[C@H]1c1ccc(C2=CCCCC2)cc1)c1cccc(F)c1,11.2 µM
4,O=C(c1ccccc1)N1CC[C@@H]2[C@H]1c1cc(-c3ccc(F)cc3)ccc1N[C@@H]2CO,129 µM
5,O=C(C1CCCCC1)N1CC2(C1)[C@H](c1ccccc1)[C@H](CO)N2Cc1ccc(Cl)cc1,33.7 µM
6,O=C(C[C@H]1CC[C@H]2[C@@H](COC[C@@H](O)CN2C(=O)Nc2ccc(C(F)(F)F)cc2)O1)NC1Cc2ccccc2C1,16.6 µM
7,CCCC#Cc1ccc([C@H]2[C@@H](CO)N3CCCCN(S(=O)(=O)Cc4ccccc4)C[C@H]23)cc1,34.2 µM
8,OC[C@@H]1[C@H](c2ccc(-c3ccccc3)cc2)[C@@H]2CN(CCC(F)(F)F)CCCCN12,56.6 µM
9,O=S(=O)(Cc1ccccc1)N1CCCCN2[C@H](CO)[C@@H](c3ccc(C#Cc4ccccc4)cc3)[C@H]2C1,> 240 µM (inactive)
10,O=C(C[C@@H]1CC[C@@H]2[C@H](COC[C@H](O)CN2C(=O)Nc2cc(Cl)cc(Cl)c2)O1)N1CCOCC1,20.4 µM
11,COc1ccc(S(=O)(=O)N2[C@@H]3CNC[C@H]2C3c2ccc(-c3cccc(C)c3)cc2)cc1 (some centres undefined),83 µM
12,O=C(Nc1ccc(C(F)(F)F)cc1)N1[C@@H]2CNC[C@H]1C2c1ccc(/C=C/c2ccccc2)cc1 (some centres undefined),19.5 µM and 4.14 µM
13,O=C(Nc1ccccc1)N1CCCCN2[C@@H](CO)[C@@H](c3ccc(-c4ccccc4F)cc3)[C@@H]2C1,27.9 µM
14,COc1cccc(CN2C[C@@H]3N[C@H](C2)C3c2ccc(-c3cccc(C#N)c3)cc2)c1 (some centres undefined),75.5 µM and 30.6 µM
15,COc1ccc(C#Cc2ccc([C@@H]3[C@@H](CO)N4CCCCN(C(=O)Nc5ccc(F)cc5)C[C@H]34)cc2)cc1,20.6 µM
16,O=S(=O)(Cc1ccccc1)N1CCCCN2[C@@H](CO)[C@@H](c3ccc(-c4ccc(F)cc4)cc3)[C@@H]2C1,38 µM
17,O=C(Nc1ccc(F)cc1)N1CCCCN2[C@H](CO)[C@H](c3ccc(-c4ccccc4F)cc3)[C@H]2C1,55.9 µM
18,Cc1ccccc1-c1ccc(C2[C@@H]3CN(Cc4ccc5c(c4)OCO5)C[C@H]2N3)cc1 (some centres undefined),5.63 µM and 15.6 µM
19,O=C(c1ccc(F)cc1)N1CC(=O)N2[C@@H](CO)[C@H](c3ccc(C#CCC4CCCC4)cc3)[C@@H]2C1,15.7 µM
20,Cc1ccc(-c2ccc(C3[C@H]4CNC[C@@H]3N4S(=O)(=O)c3ccccc3C)cc2)cc1 (some centres undefined),27.6 µM
21,COc1ccc(C#Cc2ccc([C@@H]3[C@H]4CN(Cc5ccccc5F)CCCCN4[C@H]3CO)cc2)cc1,13.7 µM

row,Structure (SMILES),IC50
1,COc1cccc(-c2ccc(C3[C@@H]4CN(S(=O)(=O)c5cccc(OC)c5)C[C@H]3N4)cc2)c1 (some centres undefined),24.4 µM
2,O=C(Nc1ccc(C(F)(F)F)cc1)N1C[C@@H]2N[C@H](C1)C2c1ccc(/C=C/c2ccccc2)cc1 (some centres undefined),1.98 µM and 3.86 µM
3,O=C(NC[C@H]1N[C@H](CO)[C@@H]1c1ccc(C2=CCCCC2)cc1)c1ccccc1,58.2 µM
4,N#Cc1cccc(-c2ccc(C3[C@@H]4CN(Cc5ccccc5F)C[C@H]3N4)cc2)c1 (some centres undefined),28.6 µM and 26.1 µM
5,N#Cc1cccc(-c2ccc(C3[C@H]4CNC[C@@H]3N4Cc3ccc(F)cc3)cc2)c1 (some centres undefined),29.4 µM
6,COc1ccc(C#Cc2ccc([C@@H]3[C@@H](CO)N4CCCCN(C(=O)Nc5cccc(F)c5)C[C@H]34)cc2)cc1,14.4 µM
7,C/C=C/c1ccc(C2[C@H]3CNC[C@@H]2N3C(=O)Nc2ccc(C(F)(F)F)cc2)cc1 (some centres undefined),12 µM
8,N#Cc1ccc(-c2ccc3c(c2)[C@H]2[C@H](CCN2Cc2ccc4c(c2)OCO4)[C@H](CO)N3)cc1,23.4 µM
9,COc1cccc(-c2ccc(C3[C@@H]4CN(S(=O)(=O)Cc5ccccc5)C[C@H]3N4)cc2)c1 (some centres undefined),52.6 µM
10,COc1ccc(-c2ccc(C3[C@@H]4CN(Cc5ccccn5)C[C@H]3N4)cc2)cc1 (some centres undefined),70.1 µM
11,CCCNC(=O)C[C@H]1CC[C@@H]2[C@H](COC[C@@H](O)CN2C(=O)Nc2ccc(Cl)c(Cl)c2)O1,20.9 µM
12,O=S(=O)(Cc1ccccc1)N1C[C@@H]2N[C@H](C1)C2c1ccc(-c2ccccc2)cc1 (some centres undefined),59.7 µM
13,Cc1ccccc1-c1ccc(C2[C@H]3CNC[C@@H]2N3C(=O)Nc2ccc(Cl)cc2)cc1 (some centres undefined),16.9 µM and 34.3 µM
14,Cc1ccc(-c2ccc([C@@H]3[C@@H]4CN(Cc5ccccc5F)C[C@H]3N4)cc2)cc1,4.19 µM
15,O=C(Nc1cccc(F)c1)N1CCCCN2[C@H](CO)[C@H](c3ccc(-c4ccccc4F)cc3)[C@H]2C1,24.5 µM
16,O=C(Nc1ccccc1)N1C[C@@H]2N[C@H](C1)C2c1ccc(-c2ccccc2F)cc1 (some centres undefined),52.3 µM
17,C(=C\c1ccc(C2[C@H]3CNC[C@@H]2N3Cc2nccs2)cc1)/c1ccccc1 (some centres undefined),60.4 µM
18,OC[C@H]1[C@@H](c2ccc(C#CC3CCCC3)cc2)[C@@H]2CN(CCC(F)(F)F)CCCCN12,48.2 µM
19,N#Cc1ccc(-c2ccc3c(c2)[C@H]2[C@H](CCN2C(=O)c2ccncc2)[C@H](CO)N3)cc1,> 120 µM (inactive)
20,COc1ccc(C#Cc2ccc([C@@H]3[C@H](CO)N4CCCCN(Cc5ccccc5F)C[C@@H]34)cc2)cc1,8.12 µM
21,O=C(C[C@H]1CC[C@H]2[C@@H](COC[C@H](O)CN2C(=O)Nc2ccc(C(F)(F)F)cc2)O1)NCC1CCCCC1,7.15 µM

row,Structure (SMILES),IC50
1,COc1cccc(-c2ccc(C3[C@H]4CNC[C@@H]3N4Cc3ccc(F)cc3)cc2)c1 (some centres undefined),11.9 µM
2,N#Cc1ccc(-c2ccc(C3[C@@H]4CN(C(=O)Nc5ccc(C(F)(F)F)cc5)C[C@H]3N4)cc2)cc1 (some centres undefined),29.7 µM
3,COc1cc(CN2[C@@H]3CNC[C@H]2C3c2ccc(-c3ccc(C#N)cc3)cc2)cc(OC)c1 (some centres undefined),48.1 µM
4,COc1ccccc1-c1ccc(C2[C@@H]3CN(S(=O)(=O)c4ccccc4C)C[C@H]2N3)cc1 (some centres undefined),28.1 µM
5,O=C(Nc1cccc(F)c1)N1CCCCN2[C@@H](CO)[C@@H](c3ccc(-c4ccccc4F)cc3)[C@@H]2C1,13.1 µM
6,COc1ccccc1CN1C[C@@H]2N[C@H](C1)C2c1ccc(-c2ccc(C#N)cc2)cc1 (some centres undefined),45.1 µM
7,COc1ccccc1C#Cc1ccc2c(c1)[C@@H]1[C@@H](CCN1C(=O)c1ccncc1)[C@@H](CO)N2,> 120 µM (inactive)
8,Cc1ccc(S(=O)(=O)N2[C@@H]3CNC[C@H]2C3c2ccc(-c3ccccc3C)cc2)cc1 (some centres undefined),30.6 µM
9,COc1ccc2c3c(n(C)c2c1)[C@@H](CO)NCC31CN(Cc2ccc(Cl)cc2)C1,50 µM
10,Cc1ccc(-c2ccc([C@H]3[C@@H](CO)N4CCCCN(C(=O)c5ccc(F)cc5)C[C@H]34)cc2)cc1,30.7 µM
11,Cc1cccc(-c2ccc([C@@H]3[C@H]4CN(CCC(F)(F)F)CCCCN4[C@H]3CO)cc2)c1,66.4 µM
12,COc1ccc(-c2ccc(C3[C@@H]4CN(S(=O)(=O)c5ccccc5C)C[C@H]3N4)cc2)cc1 (some centres undefined),21.9 µM
13,O=C(Nc1ccccc1F)N1CCCCN2[C@@H](CO)[C@@H](c3ccc(/C=C/c4ccccc4)cc3)[C@@H]2C1,11.5 µM
14,Cc1ccc(-c2ccc([C@H]3[C@@H](CO)N4CCCCN(C(=O)Nc5cccc(F)c5)C[C@H]34)cc2)cc1,4.44 µM
15,O=C(Nc1ccc(F)cc1)N1CCCCN2[C@H](CO)[C@@H](c3ccc(-c4cccc(F)c4)cc3)[C@H]2C1,92.2 µM
16,COc1ccccc1-c1ccc(C2[C@@H]3CN(Cc4cccc(F)c4)C[C@H]2N3)cc1 (some centres undefined),6.88 µM
17,C[C@@H]1CN([C@@H](C)CO)C(=O)c2cccc(NC(=O)Nc3ccc(C(F)(F)F)cc3)c2O[C@H]1CN(C)C(=O)Nc1ccc(C(F)(F)F)cc1,22.2 µM
18,O=S(=O)(c1ccccc1F)N1[C@@H]2CNC[C@H]1C2c1ccc(/C=C/c2ccccc2)cc1 (some centres undefined),73.5 µM
19,O=C(NC[C@H]1N[C@H](CO)[C@@H]1c1ccc(C2=CCCCC2)cc1)c1ccc(F)cc1,29.1 µM
20,O=S(=O)(c1ccccc1)N1C[C@@H]2N[C@H](C1)C2c1ccc(/C=C/c2ccccc2)cc1 (some centres undefined),8.5 µM
21,N#Cc1cccc(-c2ccc(C3[C@H]4CNC[C@@H]3N4Cc3cccc(F)c3)cc2)c1 (some centres undefined),55.7 µM
